Source: patent publication US10730829B2, “Compound exhibiting anti-oxidative or anti-inflammatory activity” (University-Industry Cooperation Group of Kyung Hee …, priority 2016, dated 2020)

System: Raw 264.7 cells
Assay: Inhibition of LDH release from Ox-LDL-oxidised Raw 264.7 cells (WST absorbance)
Assay type: cell-based
Details: Ox-LDL 100 μg/mL, compared to the positive control group (LDH release rate 30%)
Method: To confirm the anti-oxidative effect of the compounds according to the present invention, the amount of lactate dehydrogenase (LDH), which is a material released from cells killed or damaged by oxidation, was measured by measuring the absorbance using water soluble tetrazolium salt (WST) to measure cytotoxicity. Specifically, Raw 264.7 cells, in which oxidation was induced with 100 μg/mL of oxidized low-density lipoprotein (Ox-LDL), were treated with test materials (2 kinds of comparative groups and 2 kinds of experimental groups) at 1 μM and 10 μM concentrations, respectively, and their ability to inhibit LDH release (i.e., a standard indicator of anti-oxidative effects) was confirmed. As reference, the LDH release rate in the negative control group in which no treatment was made was 7% and the LDH release rate in the positive control group treated with only Ox-LDL was 30%.

With `CC(=O)N[C@@H](CS)C(=O)O` [NAC, N-acetyl-L-cysteine] the “decrease of LDH release rate” value (1 μM) was 6% and the “decrease of LDH release rate” value (10 μM) was 13%.

In the case of `CC(=O)NC(CSCCCSCC(NC(C)=O)C(=O)O)C(=O)O` (centres unmarked) [Newcompound-2, 2,14-dioxo-6,10-dithia-3,13-diazapentadecan-4,12-dicarboxylic acid], the “decrease of LDH release rate” value (1 μM) is reported as 11% and the “decrease of LDH release rate” value (10 μM) is reported as 20%.

`C=CCSC[C@H](N)C(=O)O` [SAC, S-allyl-L-cysteine] was tested, and the “decrease of LDH release rate” value (1 μM) was 7% and the “decrease of LDH release rate” value (10 μM) was 16%.

`CC(=O)NC(CSCCCSCC(N)C(=O)O)C(=O)O` (centres unmarked) [Newcompound-1, 2-acetamido-3-(3-(2-amino-2-carboxyethylthio)propylthio)propanoic acid] was tested, and the “decrease of LDH release rate” value (1 μM) was 12% and the “decrease of LDH release rate” value (10 μM) was 21%.
